Earlier results as cited in patent US10219515B2, “Agrochemical adjuvant containing 2-oxo-1,3-dioxolan-4 carboxylates” (BASF SE, priority 2014, dated 2019).
Where two headings read alike, the source gives them in different places.

O=C(O)CNCP(=O)(O)O [glyphosate]
acid dissociation constant pKa (amine): ~11.0
acid dissociation constant pKa (carboxylic acid): ~2.3
acid dissociation constant pKa (first phosphonic acid): ~0.8
acid dissociation constant pKa (second phosphonic acid): ~6.0
